Values quoted from earlier work as cited in US20120114757A1, “PARTICLES COMPRISING DROSPIRENONE ENCAPSULATED IN A POLYMER” (BAYER PHARMA AKTIENGESELLSCHAFT, priority 2009, published 2012).

C[C@]12CCC(=O)C=C1[C@@H]1C[C@@H]1[C@H]1[C@@H]3[C@@H]4C[C@@H]4[C@@]4(CCC(=O)O4)[C@@]3(C)CC[C@@H]12 [Drospirenone, 6β,7β;15β,16β-dimethylene-3-oxo-17α-pregn-4-ene-21,17-carbolactone]
stability under acid conditions (acid conditions): rearranged to an inactive isomer
solubility in water and aqueous buffers (various pH values): sparingly soluble
